Experiments:
[1] = test system: algae; assay: Algae growth inhibition (EC50); assay type: cell-based
[2] = Eye irritation categorisation; conditions: hazard code
[3] = Dermal irritation
[4] = test system: fish; assay: Fish mortality (LC50); assay type: in vivo
[5] = Vapor pressure; assay type: physicochemical; conditions: at 20° C.
[6] = Sensitization classification
[7] = Saturated vapor concentration; assay type: physicochemical

CCC/C(C)=N\O [2-PO, 2-pentanone oxime]
effective concentration of 50% growth inhabitation (EC50) for algae [1]: 88 ppm
eye irritation category [2]: serious eye irritation (code H319)
dermal irritation [3]: no irritation
lethal concentration of 50% mortality (LC50) for fish [4]: greater than 100 ppm
vapor pressure [5]: about 1.60 mm Hg
vapor pressure ([5]; listed as 2-pentanone oxime): about 2.14 hPa
sensitizer classification [6]: not a sensistizer
saturated vapor concentration [7]: 300 ppm
saturated vapor concentration relative to that of MEKO ([7]; 2-PO versus MEKO): less than 25%

C/C(=N/O)C(C)C [3-methyl-2-butanone oxime]
vapor pressure [5]: less than 0.975 mm Hg

CCC(C)=NO [MEKO, methyl ethyl ketoxime, reference compound]
effective concentration of 50% growth inhabitation (EC50) for algae [1]: 7 ppm
lethal concentration of 50% mortality (LC50) for fish [4]: 48 ppm
vapor pressure [5]: 2.00 mm Hg
saturated vapor concentration [7]: 1350 ppm

CC(CC(C)C)=NO [MIBKO, methyl isobutyl ketoxime]
vapor pressure [5]: about 0.13 hPa

From patent publication US20230265296A1, “COATING COMPOSITION INCLUDING ALKYL OXIMES” (AdvanSix Resins & Chemicals LLC, priority 2015, published 2023)
